Laboratory results: PubChem BioAssay (NCI)
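96-well plates; 48 h exposure; 5 concentrations. Endpoints by linear interpolation between flanking doses. Not reached: highest tested concentration assigned. GI50 marks 50% less growth. TGI marks complete inhibition of growth.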

What was measured:
Assay in all cases: NCI anticancer screen, dose series, 48 h
U251 CNS = tested on: U251 CNS
NCI-H23 lung = tested on: NCI-H23 lung
ACHN renal = tested on: ACHN renal
RPMI-8226 leukemia = tested on: RPMI-8226 leukemia
HT29 colon = tested on: HT29 colon
OVCAR-5 ovarian = tested on: OVCAR-5 ovarian
PC-3 prostate = tested on: PC-3 prostate
OVCAR-8 ovarian = tested on: OVCAR-8 ovarian
NCI-H522 lung = tested on: NCI-H522 lung
SNB-19 CNS = tested on: SNB-19 CNS
TK-10 renal = tested on: TK-10 renal
COLO 205 colon = tested on: COLO 205 colon
SK-MEL-28 melanoma = tested on: SK-MEL-28 melanoma
SK-OV-3 ovarian = tested on: SK-OV-3 ovarian
OVCAR-3 ovarian = tested on: OVCAR-3 ovarian
SK-MEL-2 melanoma = tested on: SK-MEL-2 melanoma
NCI/ADR-RES ovarian = tested on: NCI/ADR-RES ovarian
OVCAR-4 ovarian = tested on: OVCAR-4 ovarian
CCRF-CEM leukemia = tested on: CCRF-CEM leukemia
MOLT-4 leukemia = tested on: MOLT-4 leukemia
SW-620 colon = tested on: SW-620 colon
HS 578T breast = tested on: HS 578T breast
HOP-62 NSCLC = tested on: HOP-62 NSCLC
KM12 colon = tested on: KM12 colon
HCC-2998 colon = tested on: HCC-2998 colon
HCT-116 colon = tested on: HCT-116 colon
BT-549 breast = tested on: BT-549 breast
NCI-H226 lung = tested on: NCI-H226 lung
SNB-75 CNS = tested on: SNB-75 CNS
A549 NSCLC = tested on: A549 NSCLC
MDA-MB-231 breast = tested on: MDA-MB-231 breast
UACC-62 melanoma = tested on: UACC-62 melanoma
MALME-3M melanoma = tested on: MALME-3M melanoma
UACC-257 melanoma = tested on: UACC-257 melanoma
HL-60(TB) leukemia = tested on: HL-60(TB) leukemia
SN12C renal = tested on: SN12C renal
UO-31 renal = tested on: UO-31 renal
T-47D breast = tested on: T-47D breast
A498 renal = tested on: A498 renal
SK-MEL-5 melanoma = tested on: SK-MEL-5 melanoma
SF-539 CNS = tested on: SF-539 CNS
NCI-H460 lung = tested on: NCI-H460 lung
K-562 leukemia = tested on: K-562 leukemia
M14 melanoma = tested on: M14 melanoma
786-0 renal = tested on: 786-0 renal
HCT-15 colon = tested on: HCT-15 colon
MDA-MB-435 = tested on: MDA-MB-435
SF-295 CNS = tested on: SF-295 CNS
SF-268 CNS = tested on: SF-268 CNS
RXF 393 renal = tested on: RXF 393 renal
IGROV1 ovarian = tested on: IGROV1 ovarian
DU-145 prostate = tested on: DU-145 prostate
CAKI-1 renal = tested on: CAKI-1 renal
MCF7 breast = tested on: MCF7 breast
LOX IMVI melanoma = tested on: LOX IMVI melanoma

Cn1cc(C2=C(n3ccc4ccccc43)C(=O)NC2=O)c2ccccc21
GI50 (U251 CNS): > 25 µM | TGI (U251 CNS): > 25 µM | GI50 (NCI-H23 lung): > 25 µM | TGI (NCI-H23 lung): > 25 µM | GI50 (ACHN renal): > 25 µM | TGI (ACHN renal): > 25 µM | GI50 (RPMI-8226 leukemia): > 25 µM | TGI (RPMI-8226 leukemia): > 25 µM | GI50 (HT29 colon): > 25 µM | TGI (HT29 colon): > 25 µM | GI50 (OVCAR-5 ovarian): > 25 µM | TGI (OVCAR-5 ovarian): > 25 µM | GI50 (PC-3 prostate): > 25 µM | TGI (PC-3 prostate): > 25 µM | GI50 (OVCAR-8 ovarian): > 25 µM | TGI (OVCAR-8 ovarian): > 25 µM | GI50 (NCI-H522 lung): > 25 µM | TGI (NCI-H522 lung): > 25 µM | GI50 (SNB-19 CNS): > 25 µM | TGI (SNB-19 CNS): > 25 µM | GI50 (TK-10 renal): > 25 µM | TGI (TK-10 renal): > 25 µM | GI50 (COLO 205 colon): > 25 µM | TGI (COLO 205 colon): > 25 µM | GI50 (SK-MEL-28 melanoma): > 25 µM | TGI (SK-MEL-28 melanoma): > 25 µM | GI50 (SK-OV-3 ovarian): > 25 µM | TGI (SK-OV-3 ovarian): > 25 µM | GI50 (OVCAR-3 ovarian): > 25 µM | TGI (OVCAR-3 ovarian): > 25 µM | GI50 (SK-MEL-2 melanoma): > 25 µM | TGI (SK-MEL-2 melanoma): > 25 µM | GI50 (NCI/ADR-RES ovarian): > 25 µM | TGI (NCI/ADR-RES ovarian): > 25 µM | GI50 (OVCAR-4 ovarian): > 25 µM | TGI (OVCAR-4 ovarian): > 25 µM | GI50 (CCRF-CEM leukemia): > 25 µM | TGI (CCRF-CEM leukemia): > 25 µM | GI50 (MOLT-4 leukemia): > 25 µM | TGI (MOLT-4 leukemia): > 25 µM | GI50 (SW-620 colon): > 25 µM | TGI (SW-620 colon): > 25 µM | GI50 (HS 578T breast): > 25 µM | TGI (HS 578T breast): > 25 µM | GI50 (HOP-62 NSCLC): > 25 µM | TGI (HOP-62 NSCLC): > 25 µM | GI50 (KM12 colon): > 25 µM | TGI (KM12 colon): > 25 µM | GI50 (HCC-2998 colon): > 25 µM | TGI (HCC-2998 colon): > 25 µM | GI50 (HCT-116 colon): > 25 µM | TGI (HCT-116 colon): > 25 µM | GI50 (BT-549 breast): > 25 µM | TGI (BT-549 breast): > 25 µM | GI50 (NCI-H226 lung): > 25 µM | TGI (NCI-H226 lung): > 25 µM | GI50 (SNB-75 CNS): > 9.34 µM | TGI (SNB-75 CNS): > 25 µM | GI50 (A549 NSCLC): > 25 µM | TGI (A549 NSCLC): > 25 µM | GI50 (MDA-MB-231 breast): > 25 µM | TGI (MDA-MB-231 breast): > 25 µM | GI50 (UACC-62 melanoma): > 25 µM | TGI (UACC-62 melanoma): > 25 µM | GI50 (MALME-3M melanoma): > 25 µM | TGI (MALME-3M melanoma): > 25 µM | GI50 (UACC-257 melanoma): > 25 µM | TGI (UACC-257 melanoma): > 25 µM | GI50 (HL-60(TB) leukemia): > 25 µM | TGI (HL-60(TB) leukemia): > 25 µM | GI50 (SN12C renal): > 25 µM | TGI (SN12C renal): > 25 µM | GI50 (UO-31 renal): > 21.6 µM | TGI (UO-31 renal): > 25 µM | GI50 (T-47D breast): > 25 µM | TGI (T-47D breast): > 25 µM | GI50 (A498 renal): > 25 µM | TGI (A498 renal): > 25 µM | GI50 (SK-MEL-5 melanoma): > 25 µM | TGI (SK-MEL-5 melanoma): > 25 µM | GI50 (SF-539 CNS): > 25 µM | TGI (SF-539 CNS): > 25 µM | GI50 (NCI-H460 lung): > 25 µM | TGI (NCI-H460 lung): > 25 µM | GI50 (K-562 leukemia): > 25 µM | TGI (K-562 leukemia): > 25 µM | GI50 (M14 melanoma): > 25 µM | TGI (M14 melanoma): > 25 µM | GI50 (786-0 renal): > 25 µM | TGI (786-0 renal): > 25 µM | GI50 (HCT-15 colon): > 25 µM | TGI (HCT-15 colon): > 25 µM | GI50 (MDA-MB-435): > 25 µM | TGI (MDA-MB-435): > 25 µM | GI50 (SF-295 CNS): > 25 µM | TGI (SF-295 CNS): > 25 µM | GI50 (SF-268 CNS): > 25 µM | TGI (SF-268 CNS): > 25 µM | GI50 (RXF 393 renal): > 25 µM | TGI (RXF 393 renal): > 25 µM | GI50 (IGROV1 ovarian): > 25 µM | TGI (IGROV1 ovarian): > 25 µM | GI50 (DU-145 prostate): > 25 µM | TGI (DU-145 prostate): > 25 µM | GI50 (CAKI-1 renal): > 25 µM | TGI (CAKI-1 renal): > 25 µM | GI50 (MCF7 breast): > 25 µM | TGI (MCF7 breast): > 25 µM | GI50 (LOX IMVI melanoma): > 25 µM | TGI (LOX IMVI melanoma): > 25 µM
